Data: patent US11952365B2, “Anti-viral compounds” (Aligos Therapeutics, Inc., priority 2020, dated 2024)
pEC50, pIC50: −log10 of the molar value. Where two headings read alike, the source gives them in different places.

Experiments:
[1] = target: HRV3C (Human rhinovirus 14, UniProt P03303); assay: HRV3C protease assay (duplex, SAMDI-MS); format: biochemical, HRV; details: HRV3C, 30 mins preincubation, read-out: HRV IC50
Outline: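 Readout is SAMDI mass spectrometry: biotinylated substrates, products and internal standards were immobilized on neutravidin monolayers and product formation taken as the AUC ratio to internal standard. Reactions ran 30 min at ambient temperature after 30 min compound preincubation, in duplex with 3CLpro. IC50 values came from four-parameter curve fitting.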

[2] = tested on: human beta-coronavirus OC43; assay: microbe, parasite or virus in culture; format: cell-based; details: Betacoronavirus 1, OC43, HeLa, 144 h, OC43 in HeLa cells, 6 days at 33° C., read-out: EC50
[3] = Cytotoxicity plates without OC43 virus (cell-titer-glo); format: cell-based, human; details: human; HeLa cells without OC43 virus, class symbols
Outline: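 Run as a virus-free counterpart of the OC43 cytopathic-effect assay. Attached HeLa cells received compound dilutions in EMEM with 2% FBS and were kept 6 days at 33 °C. Cell viability was then measured by CellTiter-Glo luminescence.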

[4] = tested on: SARS-CoV-2-GHB-03021/2020; assay: SARS-CoV-2 Infection Model in Huh7 Cells; format: cell-based; details: Severe acute respiratory syndrome coronavirus 2, Huh-7, 96 h, SARS-CoV-2, day 4 p.i., MTS
[5] = tested on: SARS-CoV-2-GHB-03021/2020; assay: microbe, parasite or virus in culture; format: cell-based; details: Severe acute respiratory syndrome coronavirus 2, Vero C1008, 96 h; read-out: VeroE6 + CP (EC50)
[6] = target: T1, human cathepsin L (Homo sapiens, UniProt P07711); assay: cathepsin L assay; format: biochemical; details: 10 pM human cathepsin L, Z-FR-AMC 2 μM, class symbols
T1 construct: purchased R&D Systems
Outline: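 Reactions began by adding 2 μM (final) Z-FR-AMC substrate to 10 pM human cathepsin L that had been preincubated 30 min with inhibitor. Kinetic AMC fluorescence at 355/460 nm over 30 min at 2-min intervals; four-parameter fitting gave IC50 values.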

[7] = in vitro; details: human
[8] = in vitro; details: African green monkey, VeroE6 + CP (CC50), Vero E6-eGFP cells with CP-100356, absence of virus, MTS
[9] = target: 3CLpro (Severe acute respiratory syndrome coronavirus 2, UniProt P0DTD1); assay: SARS-CoV-2 3CLpro protease assay (duplex, SAMDI-MS); format: biochemical; set-up: For the duplex assay, 3CLpro and HRV3C was added; details: 3CLpro, 30 mins preincubation, read-out: SARS-Cov-2 IC50

Work on `COc1cccc2[nH]c(C(=O)N3C[C@@H]4CCC[C@@H]4[C@H]3C(=O)N[C@@H](C[C@@H]3CCNC3=O)C(=O)C(=O)NCCO)cc12` [Compound 107, (1S, 3aR, 6aS)—N—((S)-4-((2-hydroxyethyl)amino)-3,4-dioxo-1-((S)-2-oxopyrrolidin-3-yl)butan-2-yl)-2-(4-methoxy-1H-indole-2-carbonyl)octahydrocyclopenta[c]pyrrole-1-carboxamide] yielded a pIC50 ([1]; class symbols) of 5.70 to 6.70, a pEC50 ([2]; bound) of less than 5.00 and a CC50 at 6 days [3] greater than 10 µM. The pEC50 ([4]; class symbols) was 4.00 to 5.00, the pEC50 [5] was 4.00 to 5.00 and the pIC50 [6] was no more than 5.00. It also gave a CC50 [7] greater than 50 µM, a CC50 ([8]; numeric bounds) greater than 100 µM and a pIC50 ([9]; class symbols) greater than 7.70.

Work on `O=C1NCC[C@H]1C[C@H](NC(=O)[C@@H]1[C@H]2CCC[C@H]2CN1C(=O)c1cc2c3c(ccc2[nH]1)CCO3)C(=O)CO` [Compound 108, (1S,3aR,6aS)-2-{2H,3H,6H-furo[2,3-e]indole-7-carbonyl}-N-[(2S)-4-hydroxy-3-oxo-1-[(3S)-2-oxopyrrolidin-3-yl]butan-2-yl]-hexahydro-1H-cyclopenta[c]pyrrole-1-carboxamide] yielded a pIC50 ([1]; bound) of less than 5.00, a pEC50 ([2]; class symbols) of 6.00 to 7.00 and a CC50 at 6 days [3] greater than 10 µM. For the same molecule, the pEC50 ([4]; class symbols) was 4.00 to 5.00, the pEC50 [5] was 5.00 to 6.00 and the pIC50 [6] was no more than 5.00. For the same molecule, the CC50 [7] was greater than 50 µM, the CC50 ([8]; numeric bounds) was greater than 50 µM and the pIC50 ([9]; class symbols) was 6.70 to 7.70.

Work on `COc1cccc2[nH]c(C(=O)N3C[C@@H]4CCC[C@@H]4[C@H]3C(=O)N[C@@H](C[C@@H]3CCNC3=O)C(=O)C(=O)N(C)C)cc12` [Compound 110] yielded a pIC50 ([1]; bound) of less than 5.00, a pEC50 ([2]; bound) of less than 5.00 and a CC50 at 6 days [3] greater than 10 µM. For the same molecule, the pEC50 ([4]; numeric bounds) was less than 4.30, the pEC50 [5] was less than 4.30 and the pIC50 [6] was no more than 5.00. The CC50 [7] was greater than 50 µM, the CC50 ([8]; numeric bounds) was greater than 50 µM and the pIC50 ([9]; bound) was less than 5.00.

In the case of `O=C(NCc1ccccc1)C(=O)[C@H](Cc1cccnc1)NC(=O)[C@@H]1CC2(CC2)CN1C(=O)c1cc2ccccc2[nH]1` [Compound 111, (S)—N—((S)-4-(benzylamino)-3,4-dioxo-1-(pyridin-3-yl)butan-2-yl)-5-(1H-indole-2-carbonyl)-5-azaspiro[2.4]heptane-6-carboxamide], the pIC50 ([1]; bound) was less than 5.00, the pEC50 ([2]; class symbols) was 4.00 to 5.00 and the CC50 at 6 days [3] was greater than 10 µM. It also gave a pEC50 ([4]; class symbols) of 5.00 to 6.00, a pEC50 [5] of less than 4.00 and a pIC50 [6] greater than 7.00. The CC50 [7] was greater than 10 µM, the CC50 ([8]; numeric bounds) was greater than 100 µM and the pIC50 ([9]; bound) was less than 5.00.

In the case of `COc1cccc2[nH]c(C(=O)N3C[C@@H]4CCC[C@@H]4[C@H]3C(=O)N[C@@H](CN3CC[C@H](O)C3=O)C(=O)C(=O)NC3CC3)cc12` [Compound 115, (1S,3aR,6aS)—N—((S)-4-(cyclopropylamino)-1-((S)-3-hydroxy-2-oxopyrrolidin-1-yl)-3,4-dioxobutan-2-yl)-2-(4-methoxy-1H-indole-2-carbonyl)octahydrocyclopenta[c]pyrrole-1-carboxamide], the pIC50 ([1]; bound) was less than 5.00, the pEC50 ([2]; bound) was less than 5.00 and the CC50 at 6 days [3] was greater than 10 µM. For the same molecule, the pEC50 ([4]; numeric bounds) was less than 4.30, the pEC50 [5] was less than 4.30 and the pIC50 [6] was no more than 5.00. For the same molecule, the CC50 [7] was greater than 10 µM, the CC50 ([8]; numeric bounds) was greater than 50 µM and the pIC50 ([9]; class symbols) was 4.70 to 5.70.

`O=C1NCC[C@H]1C[C@H](NC(=O)[C@@H]1[C@H]2CCC[C@H]2CN1C(=O)c1cc2c(Cl)ccc(C(F)(F)F)c2[nH]1)C(=O)CO` [Compound 117, (1S,3aR,6aS)-2-[4-chloro-7-(trifluoromethyl)-1H-indole-2-carbonyl]-N-[(2S)-4-hydroxy-3-oxo-1-[(3S)-2-oxopyrrolidin-3-yl]butan-2-yl]-hexahydro-1H-cyclopenta[c]pyrrole-1-carboxamide] showed a pIC50 ([1]; bound) of less than 5.00, a pEC50 ([2]; class symbols) of 6.00 to 7.00 and a CC50 at 6 days [3] greater than 10 µM. For the same molecule, the pEC50 ([4]; class symbols) was greater than 6.00, the pEC50 [5] was greater than 6.00 and the pIC50 [6] was no more than 5.00. It also gave a CC50 [7] greater than 50 µM, a CC50 ([8]; numeric bounds) greater than 50 µM and a pIC50 ([9]; class symbols) of 6.70 to 7.70.

`COc1cccc2[nH]c(C(=O)N3C[C@@H]4CCC[C@@H]4[C@H]3C(=O)N[C@@H](CN3CCCNC3=O)C(=O)C(=O)NC3CC3)cc12` [Compound 118] gave a pIC50 ([1]; bound) of less than 5.00, a pEC50 ([2]; bound) of less than 5.00 and a CC50 at 6 days [3] greater than 10 µM. For the same molecule, the pEC50 ([4]; numeric bounds) was less than 4.30, the pEC50 [5] was less than 4.30 and the pIC50 [6] was no more than 5.00. For the same molecule, the CC50 [7] was greater than 10 µM, the CC50 ([8]; numeric bounds) was greater than 50 µM and the pIC50 ([9]; class symbols) was 4.70 to 5.70.

In the case of `COc1cccc2[nH]c(C(=O)N3C[C@@H]4CCC[C@@H]4[C@H]3C(=O)N[C@@H](Cn3cc[nH]c3=O)C(=O)C(=O)NC3CC3)cc12` [Compound 119], the pIC50 ([1]; bound) was less than 5.00, the pEC50 ([2]; bound) was less than 5.00 and the CC50 at 6 days [3] was greater than 10 µM. The pEC50 ([4]; numeric bounds) was less than 4.30, the pEC50 [5] was less than 4.30 and the pIC50 [6] was no more than 5.00. It also gave a CC50 [7] greater than 50 µM, a CC50 ([8]; numeric bounds) greater than 50 µM and a pIC50 ([9]; class symbols) of 5.70 to 6.70.

In the case of `O=C1NCC[C@H]1C[C@H](NC(=O)[C@@H]1[C@H]2CCC[C@H]2CN1C(=O)c1cc2c(Cl)cc(-c3ccccc3)cc2[nH]1)C(=O)CO` [Compound 120, (1S,3aR,6aS)-2-(4-chloro-6-phenyl-1H-indole-2-carbonyl)-N-[(2S)-4-hydroxy-3-oxo-1-[(3S)-2-oxopyrrolidin-3-yl]butan-2-yl]-hexahydro-1H-cyclopenta[c]pyrrole-1-carboxamide], the pIC50 ([1]; bound) was less than 5.00, the pEC50 ([2]; class symbols) was greater than 7.00 and the CC50 at 6 days [3] was greater than 10 µM. The pEC50 ([4]; class symbols) was greater than 6.00, the pEC50 [5] was greater than 6.00 and the pIC50 [6] was no more than 5.00. The CC50 [7] was 1 to 10 µM, the CC50 ([8]; class symbols) was greater than 10 µM and the pIC50 ([9]; class symbols) was greater than 7.70.

Molecule `O=C1NCC[C@H]1C[C@H](NC(=O)[C@@H]1[C@H]2CCC[C@H]2CN1C(=O)c1cc2c(Cl)c(F)c(Cl)cc2[nH]1)C(=O)CO` [Compound 121, (1S,3aR,6aS)-2-(4,6-dichloro-5-fluoro-1H-indole-2-carbonyl)-N—((S)-4-hydroxy-3-oxo-1-((S)-2-oxopyrrolidin-3-yl)butan-2-yl)octahydrocyclopenta[c]pyrrole-1-carboxamide] has a pIC50 ([1]; bound) of less than 5.00, a pEC50 ([2]; class symbols) greater than 7.00 and a CC50 at 6 days [3] greater than 10 µM. For the same molecule, the pEC50 ([4]; class symbols) was greater than 6.00, the pEC50 [5] was 5.00 to 6.00 and the pIC50 [6] was no more than 5.00. It also gave a CC50 [7] greater than 50 µM, a CC50 ([8]; numeric bounds) greater than 50 µM and a pIC50 ([9]; class symbols) of 6.70 to 7.70.

With `O=C1NCC[C@H]1C[C@H](NC(=O)[C@@H]1[C@H]2CCC[C@H]2CN1C(=O)c1cc2c(Cl)c(F)cc(Cl)c2[nH]1)C(=O)CO` [Compound 122, (1S,3aR,6aS)-2-(4,7-dichloro-5-fluoro-1H-indole-2-carbonyl)-N-[(2S)-4-hydroxy-3-oxo-1-[(3S)-2-oxopyrrolidin-3-yl]butan-2-yl]-hexahydro-1H-cyclopenta[c]pyrrole-1-carboxamide] the pIC50 ([1]; bound) was less than 5.00, the pEC50 ([2]; class symbols) was greater than 7.00 and the CC50 at 6 days [3] was greater than 10 µM. For the same molecule, the pEC50 ([4]; class symbols) was greater than 6.00, the pEC50 [5] was greater than 6.00 and the pIC50 [6] was no more than 5.00. For the same molecule, the CC50 [7] was greater than 50 µM, the CC50 ([8]; numeric bounds) was greater than 50 µM and the pIC50 ([9]; class symbols) was 6.70 to 7.70.

Work on `O=C1NCC[C@H]1C[C@H](NC(=O)[C@@H]1[C@H]2CCC[C@H]2CN1C(=O)c1cc2c(Oc3ccccc3)cccc2[nH]1)C(=O)CO` [Compound 123, (1S,3aR,6aS)—N-[(2S)-4-hydroxy-3-oxo-1-[(3S)-2-oxopyrrolidin-3-yl]butan-2-yl]-2-(4-phenoxy-1H-indole-2-carbonyl)-hexahydro-1H-cyclopenta[c]pyrrole-1-carboxamide] yielded a pIC50 ([1]; bound) of less than 5.00, a pEC50 ([2]; class symbols) of 6.00 to 7.00 and a CC50 at 6 days [3] greater than 10 µM. The pEC50 ([4]; class symbols) was 5.00 to 6.00, the pEC50 [5] was 5.00 to 6.00 and the pIC50 [6] was no more than 5.00. For the same molecule, the CC50 [7] was greater than 50 µM, the CC50 ([8]; numeric bounds) was greater than 50 µM and the pIC50 ([9]; class symbols) was 6.70 to 7.70.

`COc1ccc(Br)c2[nH]c(C(=O)N3C[C@@H]4CCC[C@@H]4[C@H]3C(=O)N[C@@H](C[C@@H]3CCNC3=O)C(=O)CO)cc12` [Compound 124, (1S,3aR,6aS)-2-(7-bromo-4-methoxy-1H-indole-2-carbonyl)-N-[(2S)-4-hydroxy-3-oxo-1-[(3S)-2-oxopyrrolidin-3-yl]butan-2-yl]-hexahydro-1H-cyclopenta[c]pyrrole-1-carboxamide] showed a pIC50 ([1]; class symbols) of 4.70 to 5.70, a pEC50 ([2]; class symbols) of 6.00 to 7.00 and a CC50 at 6 days [3] greater than 10 µM. It also gave a pEC50 ([4]; class symbols) greater than 6.00, a pEC50 [5] greater than 6.00 and a pIC50 [6] of no more than 5.00. It also gave a CC50 [7] greater than 50 µM, a CC50 ([8]; numeric bounds) greater than 50 µM and a pIC50 ([9]; class symbols) greater than 7.70.
